According to patent US20230381159A1 (priority 2020, published 2023):
Read-outs that look alike come from different tables or passages of the source.

Key:
[1] = target: SARS-CoV-2-RBD-hACE2 PPI (Severe acute respiratory syndrome coronavirus 2, UniProt P0DTC2); assay: biochemical; type: binding, SARS-CoV-2 / human
[2] = target: SARS-CoV-S1S2-hACE2 PPI (Severe acute respiratory syndrome coronavirus, UniProt P59594); assay: biochemical; type: binding, SARS-CoV / human
[3] = test system: SARS-CoV-2 pseudovirus (BacMam) entry into ACE2 expressing host cells (HEK293T); assay: microbe, parasite or virus in culture; type: cell-based, SARS-CoV-2 pseudovirus / human cells; settings: Severe acute respiratory syndrome-related coronavirus, HEK-293T, read-out: IC50, inhibition of pseudovirus entry (BacMam)
[4] = read-out: IC50, SARS-CoV-2 S-ACE2 assay
[5] = read-out: IC50, SARS-CoV S-hACE2 assay

## O=C(Nc1ccc2cc(S(=O)(=O)O)cc(O)c2c1)c1ccc(-c2ccc(C(=O)Nc3ccc4cc(S(=O)(=O)O)cc(O)c4c3)cc2)cc1 [Compound A5]
[1]; IC50, SARS-CoV-2 S-ACE2 assay
  IC50: 0.16 µM
[2]
  IC50: 0.24 µM

## Nc1ccc(N=Nc2ccc(-c3ccc(N=Nc4c(S(=O)(=O)O)cc5cc(S(=O)(=O)O)c(N=Nc6ccccc6)c(O)c5c4N)cc3)cc2)c(N)c1 [chlorazol black]
[1]; [4]
  IC50: 2.57 µM

## Cc1cc(-c2ccc(/N=N/c3ccc4c(S(=O)(=O)O)cc(S(=O)(=O)O)c(N)c4c3O)c(C)c2)ccc1/N=N/c1ccc2c(S(=O)(=O)O)cc(S(=O)(=O)O)c(N)c2c1O [Evans blue]
[2]; [5]
  IC50: 1.3 µM

## Nc1c(/N=N/c2ccc(-c3ccc(/N=N/c4cc(S(=O)(=O)O)c5ccccc5c4N)cc3)cc2)cc(S(=O)(=O)O)c2ccccc12 [Congo red]
[3]
  IC50: 20 µM
[2]; [5]
  IC50: 3.9 µM

## Nc1ccc2cc(S(=O)(=O)O)cc(O)c2c1N=Nc1ccc(-c2ccc(N=Nc3c(N)ccc4cc(S(=O)(=O)O)cc(O)c34)cc2)cc1 [direct violet 1]
[2]; [5]
  IC50: 2.6 µM

## O=C(Nc1ccc(-c2ccc(C(=O)Nc3cccc4cc(S(=O)(=O)O)ccc34)cc2)cc1)c1ccc([N+](=O)[O-])cc1 [Compound A2, 5-(4′-(4-Nitrobenzamido)biphenyl-4-ylcarboxamido)naphthalene-2-sulfonic acid]
[3]
  IC50: 5.6 µM
[2]
  IC50: 3.4 µM

## CCOc1ccc(N=Nc2ccc(-c3ccc(N=Nc4c(O)ccc5cc(S(=O)(=O)O)cc(S(=O)(=O)O)c45)c(C)c3)cc2C)cc1 [calcomine scarlet 3B]
[1]; [4]
  IC50: 4.25 µM
[2]; [5]
  IC50: 9.9 µM
